Values after ≈ are worked out from the molar mass of the structure shown. Residues, ends and D or L forms follow the SMILES beside them.
Columns and labels:
[1] = tested on: MRSA 3393; format: cell-based, Staphylococcus aureus; conditions: 3393
From the text: (§1) Bacteria were cultivated in Luria-Bertani (LB) broth.

[2] = tested on: MRSA ATCC 43300; format: cell-based, Staphylococcus aureus; conditions: ATCC 43300
From the text: as §1

[3] = tested on: MRSA USA 300; format: cell-based, Staphylococcus aureus
From the text: as §1

[4] = tested on: E. coli ATCC 25922; format: cell-based, Escherichia coli
From the text: as §1

[5] = tested on: MRSA USA 300; test: microbe, parasite or virus in culture; format: cell-based, Staphylococcus aureus
Protocol: (§2) MRSA USA 300 and K. pneumoniae ATCC 700603 were employed to assess the development of resistance. From inoculated microtiter panels, an aliquot of the well with the highest concentration permitting growth was taken and back diluted in fresh media to a turbidity of a 0.5 McFarland standard. This suspension was then further diluted and used to inoculate a fresh MIC panel resulting in a final concentration of 5 × 10^6 CFU/mL. Panels were incubated according to CLSI guidelines (M07, 11th edition, 2018), MICs were recorded and the next inoculum was prepared from the well containing the highest concentration of drug that allowed growth in identical fashion as described above.

[6] = tested on: K. pneumoniae ATCC 700603; test: microbe, parasite or virus in culture; format: cell-based, Klebsiella pneumoniae
Protocol: as §2

[7] = tested on: K. pneumoniae ATCC 700603; test: Transmission electron microscopy; format: cell-based, Klebsiella pneumoniae; conditions: 2 × MIC, 60 min
Protocol: The processing method of the samples for transmission electron microscopy (TEM) was the same as the treatment for SEM. The samples were then prefixed with 2.5% glutaraldehyde at 4°C overnight, post-fixed with osmium tetroxide for 70 min, and washed twice with PBS (pH 7.4). Subsequently, the samples were dehydrated for 10 min in a graded ethanol series (30, 50, 70, 90, and 100%) followed by 10 min in a mixture of absolute ethanol and acetone (1:1, v/v) and 10 min in absolute acetone. The specimens were transferred to a mixture of absolute acetone and epoxy resin (1:1, v/v) for 30 min and then to pure epoxy resin overnight at a constant temperature. Finally, the samples were sectioned using an ultramicrotome, stained with uranyl acetate and lead citrate, and then observed by TEM (Hitachi H-7650, Japan).

In the case of `CC[C@H](C)[C@H](NC(=O)[C@H](CCCNC(=N)N)NC(=O)[C@H](CCCNC(=N)N)NC(=O)[C@H](CC(C)C)NC(=O)[C@H](Cc1ccccc1)NC(=O)[C@@H](N)CCCNC(=N)N)C(=O)N[C@@H](Cc1ccccc1)C(=O)N[C@@H](Cc1ccccc1)C(=O)N[C@@H](Cc1ccccc1)C(=O)N[C@@H](Cc1ccccc1)C(N)=O` [HT2] (H-RFLRRIFFFF-NH2), the “MIC Gram+ MRSA 3393” value [1] is reported as 1.57 µM (≈ 2.27 µg/mL), the “MIC Gram+ MRSA ATCC 43300” value [2] is reported as 1.57 µM (≈ 2.27 µg/mL) and the “MIC Gram+ MRSA USA 300” value [3] is reported as 1.57 µM (≈ 2.27 µg/mL). For the same compound, the “MIC Gram- E. coli ATCC 25922” value [4] was 3.13 µM (≈ 4.53 µg/mL), the “Concentration (MIC in drug resistance assay)” value (“Concentration” below) ([5]; MRSA USA 300, day 0) was 3.125 µg/mL and the “Concentration” value ([5]; MRSA USA 300, day 1) was 3.125 µg/mL. The “Concentration” value ([5]; MRSA USA 300, day 2) was 3.125 µg/mL, the “Concentration” value ([5]; MRSA USA 300, day 3) was 3.125 µg/mL and the “Concentration” value ([5]; MRSA USA 300, day 11) was 3.125 µg/mL. For the same compound, the “Concentration” value ([5]; MRSA USA 300, day 13) was 3.125 µg/mL, the “Concentration” value ([5]; MRSA USA 300, day 22) was 12.5 µg/mL and the “Concentration” value ([5]; MRSA USA 300, day 26) was 12.5 µg/mL. For the same compound, the “Concentration” value ([5]; MRSA USA 300, day 27) was 12.5 µg/mL, the “Concentration” value ([5]; MRSA USA 300, day 28) was 12.5 µg/mL and the “Concentration” value ([5]; MRSA USA 300, day 29) was 12.5 µg/mL. The “Concentration” value ([5]; MRSA USA 300, day 32) was 12.5 µg/mL, the “Concentration” value ([5]; MRSA USA 300, day 33) was 12.5 µg/mL and the “Concentration” value ([5]; MRSA USA 300, day 34) was 12.5 µg/mL. The “Concentration” value ([5]; MRSA USA 300, day 35) was 12.5 µg/mL, the “Concentration” value ([5]; MRSA USA 300, day 37) was 12.5 µg/mL and the “Concentration” value ([5]; MRSA USA 300, day 38) was 12.5 µg/mL. For the same compound, the “Concentration” value ([5]; MRSA USA 300, day 39) was 12.5 µg/mL, the “Concentration” value ([5]; MRSA USA 300, day 40) was 12.5 µg/mL and the “increase in MIC after 40 passages” value ([5]; serial passage at sub-MIC) was “four-fold”. For the same compound, the “Concentration” value ([6]; K. pneumoniae ATCC 700603, day 0) was 6.25 µg/mL, the “Concentration” value ([6]; K. pneumoniae ATCC 700603, day 1) was 6.25 µg/mL and the “Concentration” value ([6]; K. pneumoniae ATCC 700603, day 2) was 6.25 µg/mL. The “Concentration” value ([6]; K. pneumoniae ATCC 700603, day 3) was 12.5 µg/mL, the “Concentration” value ([6]; K. pneumoniae ATCC 700603, day 4) was 12.5 µg/mL and the “Concentration” value ([6]; K. pneumoniae ATCC 700603, day 5) was 6.25 µg/mL. For the same compound, the “Concentration” value ([6]; K. pneumoniae ATCC 700603, day 6) was 6.25 µg/mL, the “Concentration” value ([6]; K. pneumoniae ATCC 700603, day 7) was 6.25 µg/mL and the “Concentration” value ([6]; K. pneumoniae ATCC 700603, day 8) was 6.25 µg/mL. The “Concentration” value ([6]; K. pneumoniae ATCC 700603, day 9) was 6.25 µg/mL, the “Concentration” value ([6]; K. pneumoniae ATCC 700603, day 10) was 12.5 µg/mL and the “Concentration” value ([6]; K. pneumoniae ATCC 700603, day 11) was 12.5 µg/mL. For the same compound, the “Concentration” value ([6]; K. pneumoniae ATCC 700603, day 12) was 12.5 µg/mL, the “Concentration” value ([6]; K. pneumoniae ATCC 700603, day 13) was 12.5 µg/mL and the “Concentration” value ([6]; K. pneumoniae ATCC 700603, day 14) was 25 µg/mL. The “Concentration” value ([6]; K. pneumoniae ATCC 700603, day 15) was 25 µg/mL, the “Concentration” value ([6]; K. pneumoniae ATCC 700603, day 16) was 25 µg/mL and the “Concentration” value ([6]; K. pneumoniae ATCC 700603, day 17) was 25 µg/mL. The “Concentration” value ([6]; K. pneumoniae ATCC 700603, day 18) was 12.5 µg/mL, the “Concentration” value ([6]; K. pneumoniae ATCC 700603, day 19) was 25 µg/mL and the “Concentration” value ([6]; K. pneumoniae ATCC 700603, day 20) was 25 µg/mL. The “Concentration” value ([6]; K. pneumoniae ATCC 700603, day 21) was 25 µg/mL, the “Concentration” value ([6]; K. pneumoniae ATCC 700603, day 22) was 12.5 µg/mL and the “Concentration” value ([6]; K. pneumoniae ATCC 700603, day 23) was 25 µg/mL. The “Concentration” value ([6]; K. pneumoniae ATCC 700603, day 24) was 50 µg/mL, the “Concentration” value ([6]; K. pneumoniae ATCC 700603, day 25) was 25 µg/mL and the “Concentration” value ([6]; K. pneumoniae ATCC 700603, day 26) was 25 µg/mL. For the same compound, the “Concentration” value ([6]; K. pneumoniae ATCC 700603, day 27) was 25 µg/mL, the “Concentration” value ([6]; K. pneumoniae ATCC 700603, day 28) was 25 µg/mL and the “Concentration” value ([6]; K. pneumoniae ATCC 700603, day 29) was 25 µg/mL. For the same compound, the “Concentration” value ([6]; K. pneumoniae ATCC 700603, day 30) was 50 µg/mL, the “Concentration” value ([6]; K. pneumoniae ATCC 700603, day 31) was 25 µg/mL and the “Concentration” value ([6]; K. pneumoniae ATCC 700603, day 32) was 25 µg/mL. For the same compound, the “Concentration” value ([6]; K. pneumoniae ATCC 700603, day 33) was 25 µg/mL, the “Concentration” value ([6]; K. pneumoniae ATCC 700603, day 34) was 12.5 µg/mL and the “Concentration” value ([6]; K. pneumoniae ATCC 700603, day 35) was 25 µg/mL. For the same compound, the “Concentration” value ([6]; K. pneumoniae ATCC 700603, day 36) was 25 µg/mL, the “Concentration” value ([6]; K. pneumoniae ATCC 700603, day 37) was 50 µg/mL and the “Concentration” value ([6]; K. pneumoniae ATCC 700603, day 38) was 25 µg/mL. The “Concentration” value ([6]; K. pneumoniae ATCC 700603, day 39) was 25 µg/mL, the “Concentration” value ([6]; K. pneumoniae ATCC 700603, day 40) was 25 µg/mL and the “increase in MIC after 40 passages” value ([6]; serial passage at sub-MIC) was “four-fold”. The “membrane and intracellular structure by TEM (in words)” value [7] was “cytoplasmic membranes became blurred and separated”.
